Consider eight molecules from ChEMBL document CHEMBL1136657, “Novel ether derivatives of mannopeptimycin glycopeptide antibiotic” (2003).

Assay type in all cases: functional
One experiment concerns Enterococcus sp. In words: Minimum inhibitory concentration against Enterococcus species. was determined.
Experiment [1] deals with Staphylococcus aureus. In words: Minimum inhibitory concentration against Staphylococcus aureus was determined.
The test system of experiment [2] is Streptococcus. In words: Minimum inhibitory concentration against Streptococcus species. was determined.
In another experiment the test system is Candida albicans. As to the kind of experiment: Minimum inhibitory concentration against Candida albicans was determined.
The subject of experiment [3] is Enterococcus faecium. In words: Minimum inhibitory concentration against Enterococcus faecium was determined; Range is […] ug/mL.
The test system of experiment [4] is Enterococcus faecalis. In words: Minimum inhibitory concentration against Enterococcus faecalis was determined; Range is […] ug/mL.
The nature of experiment [5]: Minimum inhibitory concentration against Gram(-) sp. was determined; Range is […] ug/mL.
Experiment [6] concerns Staphylococcus aureus. In words: Minimum inhibitory concentration against Staphylococcus aureus (MRCNS) was determined.
Experiment [7] has as its system Staphylococcus aureus. In words: Minimum inhibitory concentration against Staphylococcus aureus (MRSA) was determined; Range is 32-64 ug/mL.
The subject of experiment [8] is Staphylococcus aureus. As to the kind of experiment: Minimum inhibitory concentration against Staphylococcus aureus (MSCNS) was determined.
For experiment [9], the system named is Streptococcus. In words: Minimum inhibitory concentration against Streptococcus was determined; […].
The subject of experiment [10] is Staphylococcus aureus. As to the kind of experiment: Minimum inhibitory concentration against Staphylococcus aureus (MSSA) was determined; Range is 32-64 ug/mL.
The subject of experiment [11] is Enterococcus faecalis. In words: Minimum inhibitory concentration against Enterococcus faecalis was determined; Range is 8-16 ug/mL.
Experiment [12] is described as follows: Minimum inhibitory concentration against Gram(-) sp. was determined.
Experiment [13] deals with Staphylococcus aureus. As to the kind of experiment: Minimum inhibitory concentration against Staphylococcus aureus (MSCNS) was determined; Range is 1-8 ug/mL.
For experiment [14], the system named is Staphylococcus aureus. In words: Minimum inhibitory concentration against Staphylococcus aureus (MRSA) was determined; Range is 4-8 ug/mL.
The test system of experiment [15] is Streptococcus. In words: Minimum inhibitory concentration against Streptococcus was determined; Range is <=0.12-2 ug/mL.
Experiment [16] deals with Staphylococcus aureus. In words: Minimum inhibitory concentration against Staphylococcus aureus (MSSA) was determined; Range is 4-8 ug/mL.
The subject of experiment [17] is Enterococcus faecium. In words: Minimum inhibitory concentration against Enterococcus faecium was determined; Range is 8-16 ug/mL.
For experiment [18], the system named is Enterococcus faecium. In words: Minimum inhibitory concentration against Enterococcus faecium was determined; Range is 2-4 ug/mL.
The subject of experiment [19] is Enterococcus faecalis. In words: Minimum inhibitory concentration against Enterococcus faecalis was determined; Range is 2-4 ug/mL.
Experiment [20] in a line: Minimum inhibitory concentration against Gram(-) sp. was determined; Range is 32->128 ug/mL.
For a further experiment, the system named is Mus musculus. As to the kind of experiment: In vivo activity against Staphylococcus aureus smith was determined after iv administration in mice. Conditions: Mus musculus, iv; read-out: ED50.
Experiment [21] has as its system Staphylococcus aureus. As to the kind of experiment: Minimum inhibitory concentration against Staphylococcus aureus smith.
The subject of experiment [22] is Staphylococcus aureus. In words: Minimum inhibitory concentration against Staphylococcus aureus (MRCNS) was determined; Range is 0.25-1 ug/mL.
Experiment [23] concerns Staphylococcus aureus. As to the kind of experiment: Minimum inhibitory concentration against Staphylococcus aureus (MRSA) was determined; Range is […] ug/mL.
The subject of experiment [24] is Staphylococcus aureus. In words: Minimum inhibitory concentration against Staphylococcus aureus (MSCNS) was determined; Range is <=0.12-0.5 ug/mL.
Experiment [25] deals with Streptococcus. As to the kind of experiment: Minimum inhibitory concentration against Streptococcus was determined.
Experiment [26] deals with Staphylococcus aureus. In words: Minimum inhibitory concentration against Staphylococcus aureus (MSSA) was determined; Range is 1-4 ug/mL.
In experiment [27] the test system is Enterococcus faecalis. In words: Minimum inhibitory concentration against Enterococcus faecalis was determined.
For experiment [28], the system named is Staphylococcus aureus. As to the kind of experiment: Minimum inhibitory concentration against Staphylococcus aureus (MRCNS) was determined; Range is 1-4 ug/mL.
Experiment [29] deals with Staphylococcus aureus. In words: Minimum inhibitory concentration against Staphylococcus aureus (MRSA) was determined.
Experiment [30] relates to Staphylococcus aureus. In words: Minimum inhibitory concentration against Staphylococcus aureus (MSCNS) was determined; Range is 0.5-1 ug/mL.
In experiment [31] the test system is Staphylococcus aureus. In words: Minimum inhibitory concentration against Staphylococcus aureus (MSSA) was determined; Range is 2-4 ug/mL.

Values after ≈ are worked out from the molar mass of the structure shown.

For `CC(C)CC(=O)O[C@@H]1[C@@H](O[C@H]2[C@H](O)[C@H](O)[C@@H](Oc3ccc(C[C@H]4NC(=O)[C@H]([C@@H](C)c5ccccc5)NC(=O)CNC(=O)[C@H](CO)NC(=O)[C@@H]([C@@H](O)[C@@H]5CN=C(N)N5[C@H]5O[C@H](O)[C@@H](O)[C@H](O)[C@@H]5O)NC(=O)[C@H]([C@@H](O)[C@@H]5CN=C(N)N5)NC4=O)cc3)O[C@@H]2CO)O[C@H](CO)[C@@H](O)[C@@H]1O`, the MIC was above 128 µg/mL with Enterococcus sp., 8 µg/mL (≈ 5.86 µM) in the experiment on Staphylococcus aureus [1] and 8 µg/mL (≈ 5.86 µM) with Streptococcus [2].

For the molecule `C[C@@H](c1ccccc1)[C@@H]1NC(=O)CNC(=O)[C@H](CO)NC(=O)[C@@H]([C@@H](O)[C@@H]2CN=C(N)N2[C@H]2O[C@H](O)[C@@H](O)[C@H](O)[C@@H]2O)NC(=O)[C@H]([C@@H](O)[C@@H]2CN=C(N)N2)NC(=O)[C@@H](Cc2ccc(O[C@H]3O[C@H](CO)[C@@H](O[C@H]4O[C@H](CO)[C@@H](O)[C@H](O)[C@@H]4O)[C@H](O)[C@@H]3O)cc2)NC1=O`, the MIC against Enterococcus sp. is 128 µg/mL (≈ 99.9 µM); with Staphylococcus aureus [1] it was above 128 µg/mL; in the experiment with Streptococcus [2] it was 32 µg/mL (≈ 25 µM).

Regarding `CC(C)CC(=O)O[C@H]1[C@H](O)[C@H](O)[C@@H](O[C@H]2[C@H](O)[C@H](O)[C@@H](Oc3ccc(C[C@H]4NC(=O)[C@H]([C@@H](C)c5ccccc5)NC(=O)CNC(=O)[C@H](CO)NC(=O)[C@@H]([C@@H](O)[C@@H]5CN=C(N)N5[C@H]5O[C@H](O)[C@@H](O)[C@H](O)[C@@H]5O)NC(=O)[C@H]([C@@H](O)[C@@H]5CN=C(N)N5)NC4=O)cc3)O[C@@H]2CO)O[C@@H]1CO`, the MIC against Enterococcus sp. was 4 µg/mL (≈ 2.93 µM); with Staphylococcus aureus [1] it was 4 µg/mL (≈ 2.93 µM); against Streptococcus [2], 2 µg/mL (≈ 1.46 µM).

`CC(C)CC(=O)O[C@@H]1[C@H](O)[C@@H](O[C@H]2[C@H](O)[C@H](O)[C@@H](Oc3ccc(C[C@H]4NC(=O)[C@H]([C@@H](C)c5ccccc5)NC(=O)CNC(=O)[C@H](CO)NC(=O)[C@@H]([C@@H](O)[C@@H]5CN=C(N)N5[C@H]5O[C@H](O)[C@@H](O)[C@H](O)[C@@H]5O)NC(=O)[C@H]([C@@H](O)[C@@H]5CN=C(N)N5)NC4=O)cc3)O[C@@H]2CO)O[C@H](CO)[C@H]1O`: the MIC was 64 µg/mL (≈ 46.9 µM) against Enterococcus sp., 8 µg/mL (≈ 5.86 µM) against Staphylococcus aureus [1] and 8 µg/mL (≈ 5.86 µM) against Streptococcus [2].

Consider `C[C@@H](c1ccccc1)[C@@H]1NC(=O)CNC(=O)[C@H](CO)NC(=O)[C@@H]([C@@H](O)[C@@H]2CN=C(N)N2[C@H]2O[C@H](O)[C@@H](O)[C@H](O)[C@@H]2O)NC(=O)[C@H]([C@@H](O)[C@@H]2CN=C(N)N2)NC(=O)[C@@H](Cc2ccc(O[C@H]3O[C@H](CO)[C@@H](O[C@H]4O[C@H](CO)[C@@H](O)[C@H](O)[C@@H]4OCc4ccc(OCc5ccccc5)cc4)[C@H](O)[C@@H]3O)cc2)NC1=O`, for which the MIC was 128 µg/mL (≈ 86.6 µM) against Candida albicans; 16 µg/mL (≈ 10.8 µM) in the experiment on Enterococcus faecium [3]; 64 µg/mL (≈ 43.3 µM) against Enterococcus faecalis [4]; above 128 µg/mL in experiment [5]; 32 µg/mL (≈ 21.7 µM) against Staphylococcus aureus [6]; 32 µg/mL (≈ 21.7 µM) against Staphylococcus aureus [7]. Moreover, the results for the MIC in the experiment on Staphylococcus aureus [8], against Streptococcus [9] and in the experiment on Staphylococcus aureus [10] were 16 µg/mL (≈ 10.8 µM), 2 µg/mL (≈ 1.35 µM) and 32 µg/mL (≈ 21.7 µM), respectively.

Take `C[C@@H](c1ccccc1)[C@@H]1NC(=O)CNC(=O)[C@H](CO)NC(=O)[C@@H]([C@@H](O)[C@@H]2CN=C(N)N2[C@H]2O[C@H](O)[C@@H](O)[C@H](O)[C@@H]2O)NC(=O)[C@H]([C@@H](O)[C@@H]2CN=C(N)N2)NC(=O)[C@@H](Cc2ccc(O[C@H]3O[C@H](CO)[C@@H](O[C@H]4O[C@H](CO)[C@@H](O)[C@H](OCc5ccc(OCc6ccccc6)cc5)[C@@H]4O)[C@H](O)[C@@H]3O)cc2)NC1=O`: the MIC against Candida albicans was above 128 µg/mL; with Enterococcus faecalis [11], 8 µg/mL (≈ 5.41 µM); in experiment [12] it was above 128 µg/mL; with Staphylococcus aureus [6], 4 µg/mL (≈ 2.71 µM); with Staphylococcus aureus [13], 1 µg/mL (≈ 0.677 µM); in the experiment with Staphylococcus aureus [14], 4 µg/mL (≈ 2.71 µM). The values for the MIC in the experiment with Streptococcus [15], against Staphylococcus aureus [16] and with Enterococcus faecium [17] were at most 0.12 µg/mL, 4 µg/mL (≈ 2.71 µM) and 8 µg/mL (≈ 5.41 µM), respectively.

On to `C[C@@H](c1ccccc1)[C@@H]1NC(=O)CNC(=O)[C@H](CO)NC(=O)[C@@H]([C@@H](O)[C@@H]2CN=C(N)N2[C@H]2O[C@H](O)[C@@H](O)[C@H](O)[C@@H]2O)NC(=O)[C@H]([C@@H](O)[C@@H]2CN=C(N)N2)NC(=O)[C@@H](Cc2ccc(O[C@H]3O[C@H](CO)[C@@H](O[C@H]4O[C@H](CO)[C@@H](OCc5ccc(OCc6ccccc6)cc5)[C@H](O)[C@@H]4O)[C@H](O)[C@@H]3O)cc2)NC1=O`, for which the minimal inhibitory concentration (MIC) was above 128 µg/mL against Candida albicans; 2 µg/mL (≈ 1.35 µM) in the experiment with Enterococcus faecium [18]; 2 µg/mL (≈ 1.35 µM) against Enterococcus faecalis [19]; 32 µg/mL (≈ 21.7 µM) in [20]; 1 µg/mL (≈ 0.677 µM) with Staphylococcus aureus [21]; 0.25 µg/mL (≈ 0.169 µM) in the experiment with Staphylococcus aureus [22]. Besides, the MIC against Staphylococcus aureus [23] is 1 µg/mL (≈ 0.677 µM); in the experiment on Staphylococcus aureus [24] it was at most 0.12 µg/mL; in the experiment on Streptococcus [25] it was below 0.12 µg/mL; against Staphylococcus aureus [26], 1 µg/mL (≈ 0.677 µM). The ED50 in the experiment with Mus musculus was 0.06 mg/kg.

Regarding `C[C@@H](c1ccccc1)[C@@H]1NC(=O)CNC(=O)[C@H](CO)NC(=O)[C@@H]([C@@H](O)[C@@H]2CN=C(N)N2[C@H]2O[C@H](O)[C@@H](O)[C@H](O)[C@@H]2O)NC(=O)[C@H]([C@@H](O)[C@@H]2CN=C(N)N2)NC(=O)[C@@H](Cc2ccc(O[C@H]3O[C@H](CO)[C@@H](OC4O[C@H](COCc5ccc(OCc6ccccc6)cc5)[C@@H](O)[C@H](O)[C@@H]4O)[C@H](O)[C@@H]3O)cc2)NC1=O` (some centres not stated), the minimum inhibitory concentration (MIC) in the experiment on Candida albicans is above 128 µg/mL; against Enterococcus faecium [18], 2 µg/mL (≈ 1.35 µM); in the experiment with Enterococcus faecalis [27] it was 4 µg/mL (≈ 2.71 µM); in experiment [12], above 128 µg/mL; against Staphylococcus aureus [21], 2 µg/mL (≈ 1.35 µM); in the experiment with Staphylococcus aureus [28], 1 µg/mL (≈ 0.677 µM). The minimal inhibitory concentration (MIC) in the experiment with Staphylococcus aureus [29] was 4 µg/mL (≈ 2.71 µM); against Staphylococcus aureus [30] it was 0.5 µg/mL (≈ 0.338 µM); against Streptococcus [25] it was at most 0.12 µg/mL; in the experiment on Staphylococcus aureus [31], 2 µg/mL (≈ 1.35 µM). Also, in the experiment on Mus musculus, the ED50 is 0.25 mg/kg.
